{"source": "ChEMBL document CHEMBL1201862", "about": "“PubChem BioAssay data set” (2004)", "key": {"[1]": {"test_system": "Streptococcus sp. 'group A'", "experiment": "growth inhibition of control SK(-) GAS strain, dose response, counter-screen for streptokinase expression inhibitor project, luminescence, kanamycin, BacTiterGlo, confirmation (AID 1900)", "format": "functional, organism-based"}, "Streptokinase A": {"molecular_target": "T1, Streptokinase A (Streptococcus pyogenes serotype M1, UniProt P10520)", "T1 sequence (P10520 whole entry)": "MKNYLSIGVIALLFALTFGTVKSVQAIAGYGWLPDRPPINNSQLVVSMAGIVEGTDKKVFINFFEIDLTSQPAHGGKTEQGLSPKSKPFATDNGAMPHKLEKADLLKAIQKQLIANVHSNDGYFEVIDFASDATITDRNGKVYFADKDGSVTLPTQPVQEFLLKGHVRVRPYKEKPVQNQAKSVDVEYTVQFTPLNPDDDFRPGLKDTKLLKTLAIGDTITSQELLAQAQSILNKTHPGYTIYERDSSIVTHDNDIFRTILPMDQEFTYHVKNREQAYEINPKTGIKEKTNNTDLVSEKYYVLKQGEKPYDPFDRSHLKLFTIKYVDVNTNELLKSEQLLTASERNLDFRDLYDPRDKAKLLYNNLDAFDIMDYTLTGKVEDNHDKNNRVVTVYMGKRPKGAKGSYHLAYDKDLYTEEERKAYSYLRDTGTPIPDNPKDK", "experiment": "S. pyogenes streptokinase expression inhibitors, potency, dose response, plasminogen activation absorbance, OD405 (AID 1914);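 note: secreted streptokinase activity via plasminogen activation per viability signal from cell pellet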", "format": "functional, Streptococcus pyogenes M1 GAS"}, "Streptococcus": {"test_system": "Streptococcus", "experiment": "Group A Streptococcus viability loss, dose response, counter-screen for streptokinase expression inhibitor project, luminescence, BacTiterGlo (AID 1915);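 note: potency for reduction of bacterial viability or growth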", "format": "functional, organism-based"}, "Caspase-3": {"molecular_target": "T2, Caspase-3 (Homo sapiens, UniProt P42574)", "T2 sequence (P42574 whole entry)": "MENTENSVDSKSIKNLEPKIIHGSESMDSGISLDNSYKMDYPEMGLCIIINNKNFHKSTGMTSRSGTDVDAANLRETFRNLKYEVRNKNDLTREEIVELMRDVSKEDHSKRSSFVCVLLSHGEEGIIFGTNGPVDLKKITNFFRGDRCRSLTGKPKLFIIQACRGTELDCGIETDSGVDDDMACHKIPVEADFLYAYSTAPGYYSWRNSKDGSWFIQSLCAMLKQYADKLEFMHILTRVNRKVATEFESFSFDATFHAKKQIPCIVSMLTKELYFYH", "format": "functional"}, "[2]": {"molecular_target": "T3, Sentrin-specific protease 7 (Homo sapiens, UniProt Q9BQF6)", "T3 sequence (Q9BQF6 whole entry)": "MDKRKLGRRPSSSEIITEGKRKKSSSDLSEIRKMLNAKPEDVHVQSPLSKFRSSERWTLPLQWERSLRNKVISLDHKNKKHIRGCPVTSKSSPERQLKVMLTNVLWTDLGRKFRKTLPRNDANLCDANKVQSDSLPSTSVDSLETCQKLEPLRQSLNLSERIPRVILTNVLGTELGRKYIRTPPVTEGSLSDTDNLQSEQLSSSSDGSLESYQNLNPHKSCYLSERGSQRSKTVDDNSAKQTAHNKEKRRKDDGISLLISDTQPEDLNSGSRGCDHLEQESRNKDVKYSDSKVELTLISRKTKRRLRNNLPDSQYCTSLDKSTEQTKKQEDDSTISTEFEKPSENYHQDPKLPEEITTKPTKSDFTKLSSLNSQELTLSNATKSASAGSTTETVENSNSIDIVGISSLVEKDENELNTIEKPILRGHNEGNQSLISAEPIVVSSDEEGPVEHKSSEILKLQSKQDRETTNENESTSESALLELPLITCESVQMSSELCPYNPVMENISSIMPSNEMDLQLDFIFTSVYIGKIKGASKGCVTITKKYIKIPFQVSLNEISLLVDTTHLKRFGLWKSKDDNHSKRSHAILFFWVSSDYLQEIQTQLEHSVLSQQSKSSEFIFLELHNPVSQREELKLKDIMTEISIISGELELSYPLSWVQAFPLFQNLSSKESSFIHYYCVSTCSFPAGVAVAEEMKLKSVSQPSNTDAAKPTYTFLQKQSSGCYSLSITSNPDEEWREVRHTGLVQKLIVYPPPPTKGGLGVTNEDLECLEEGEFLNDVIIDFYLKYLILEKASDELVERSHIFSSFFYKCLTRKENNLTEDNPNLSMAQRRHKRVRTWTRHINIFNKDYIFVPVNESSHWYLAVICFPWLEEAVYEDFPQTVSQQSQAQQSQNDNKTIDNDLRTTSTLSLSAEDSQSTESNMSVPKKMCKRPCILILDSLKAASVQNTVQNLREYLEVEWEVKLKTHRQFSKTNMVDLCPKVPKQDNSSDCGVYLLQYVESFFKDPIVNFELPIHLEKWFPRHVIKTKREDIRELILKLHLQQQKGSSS", "format": "functional"}, "[3]": {"molecular_target": "T4, Sentrin-specific protease 8 (Homo sapiens, UniProt Q96LD8)", "T4 sequence (Q96LD8 whole entry)": "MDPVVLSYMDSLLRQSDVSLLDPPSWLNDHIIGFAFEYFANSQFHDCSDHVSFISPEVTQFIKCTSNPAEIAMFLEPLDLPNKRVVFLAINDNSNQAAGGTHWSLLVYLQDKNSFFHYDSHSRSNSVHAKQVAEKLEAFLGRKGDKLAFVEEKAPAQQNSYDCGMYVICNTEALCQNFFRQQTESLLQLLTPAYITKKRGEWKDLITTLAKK", "format": "functional"}, "INS1": {"test_system": "INS1", "experiment": "beta cell apoptosis inhibitors, cytokine rescue, dose response, luminescence, retest (AID 449756);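 note: cell death triggered by IL-1 beta plus TNF-alpha plus IFN-gamma mixture; protective hits raise ATP signal compared with cytokine alone wells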", "format": "functional, cell-based", "conditions": "Rattus norvegicus"}}, "note": "Calls of active or inactive are those of the source.", "data": [{"smiles": "Cc1ccc(C(=O)c2c(C)oc3c2C(=O)C(=O)c2ccccc2-3)cc1", "values": [{"measurement": "EC50", "setting": "[1]", "result": "0.566 µM (active)"}, {"measurement": "EC50", "setting": "Streptokinase A", "result": "> 150 µM (not active)"}, {"measurement": "EC50", "setting": "Streptococcus", "result": "13.6 µM (active)"}, {"measurement": "IC50", "setting": "Caspase-3", "result": "29.1 µM (active)"}, {"measurement": "IC50", "setting": "[2]", "result": "6.7 µM (active)"}, {"measurement": "IC50", "setting": "[3]", "result": "7.82 µM (active)"}, {"measurement": "AC50", "setting": "INS1", "result": "2.4 µM (active)"}]}, {"smiles": "CN(C)c1ncc(C2=C(Cl)C(=O)C(N3CCCC3)=C(Cl)C2=O)s1", "values": [{"measurement": "EC50", "setting": "[1]", "result": "24.5 µM (active)"}, {"measurement": "EC50", "setting": "Streptokinase A", "result": "> 150 µM (not active)"}, {"measurement": "EC50", "setting": "Streptococcus", "result": "135 µM (active)"}]}, {"smiles": "O=C1C(Cl)=C(NCc2cccnc2)C(=O)c2ccccc21", "values": [{"measurement": "AC50", "setting": "INS1", "result": "7.26 µM (active)"}]}, {"smiles": "O=C1C(O)=C/C(=N\\c2ccccc2O)c2ccccc21", "values": [{"measurement": "EC50", "setting": "[1]", "result": "3.4 µM (active)"}, {"measurement": "EC50", "setting": "Streptokinase A", "result": "132 µM (active)"}, {"measurement": "EC50", "setting": "Streptococcus", "result": "> 150 µM (not active)"}, {"measurement": "IC50", "setting": "Caspase-3", "result": "8.23 µM (active)"}, {"measurement": "IC50", "setting": "[2]", "result": "5.84 µM (active)"}, {"measurement": "IC50", "setting": "[3]", "result": "5.23 µM (active)"}, {"measurement": "AC50", "setting": "INS1", "result": "3.26 µM (active)"}]}, {"smiles": "Cc1cnc(NC(=O)c2sc3ccccc3c2Cl)s1", "values": [{"measurement": "IC50", "setting": "Caspase-3", "result": "6.67 µM (active)"}, {"measurement": "IC50", "setting": "[2]", "result": "2.6 µM (active)"}, {"measurement": "IC50", "setting": "[3]", "result": "2.56 µM (active)"}]}, {"smiles": "Nc1ccc(Br)c2cccnc12", "values": [{"measurement": "IC50", "setting": "Caspase-3", "result": "10.4 µM (active)"}, {"measurement": "IC50", "setting": "[2]", "result": "9.77 µM (active)"}, {"measurement": "IC50", "setting": "[3]", "result": "10 µM (active)"}]}, {"smiles": "Cc1ccc(Nc2cc(C)nn2-c2nc(C)cc(O)n2)cc1", "values": [{"measurement": "EC50", "setting": "[1]", "result": "< 0.06 µM (active)"}, {"measurement": "EC50", "setting": "Streptococcus", "result": "0.065 µM (active)"}, {"measurement": "AC50", "setting": "INS1", "result": "0.6 µM (active)"}]}]}
